Source: patent publication US20180280480A1, “COMPOSITIONS AND PEPTIDES HAVING DUAL GLP-1R AND GLP-2R AGONIST ACTIVITY” (priority 2014, published 2018)
Numbered stars: 1 amine (or outer) side, 2 acyl side, 3 side chain; on linkers, the order of the positions; unused ones are H or OH. Side chains are listed from the residue outwards. Ends that are not written are not given here. * marks the point of attachment. γGlu = O=C(O)[C@H](CCC(=O)[*:2])N[*:1]; Palmitoyl = CCCCCCCCCCCCCCCC(=O)*

Columns and labels:
C57BL/6J mice [1] = assay: Acute food intake in C57BL/6J mice; type: in vivo; settings: for Total food intake (g/animal): Day 0: 0-[…] (lights off), mean ± SEM
Description: The C57BL/6J mice arrived 7 days prior to the initiation of the study. During these days, animals were handled daily to accustom them to the experimental paradigm. At Day −1, the mice were randomised according to body weight to participate in one of following drug treatment groups (n=6-8 in each group): Group 1: vehicle. […] Group 3-5: SEQ ID NO 3; 3.0; 1.0; 0.3 mg/kg. Group 6-8: SEQ ID NO 4; 3.0; 1.0; 0.3 mg/kg. Group 9-11: SEQ ID NO 5; 3.0; 1.0; 0.3 mg/kg. Group 12-14: SEQ ID NO 6; 3.0; 1.0; 0.3 mg/kg. Group 15-17: SEQ ID NO 7; 3.0; 1.0; 0.3 mg/kg. Three days prior to initiation of dosing, all animals were handled daily and accustomed to the experimental conditions by subcutaneous mock injections (i.e. nipping the skin of the back). Baseline food intake was monitored four days prior to the study. Mice were randomized according to body weight on Day −1. Animals were subjected to two separate injections. First acute dose was administered prior to lights out at Day 0 and food intake was monitored 24 hours post dosing. On Day 3, mice were re-randomised into new treatment groups and dosed prior to lights out. Food intake was monitored 24 hours post dosing. Body weight was measured daily from Day −5 and throughout the study. The study was terminated on Day 5. […] Dosing took place prior to lights out in the afternoon (between 13.30 and 14.00). Doses were administered subcutaneously (dose volume 5 ml/kg). Food intake data was collected using the HM-2 system, an online computerized feeding system using digital weighing cells. Food intake and body weight were measured from Day −7 and throughout the study. […]

C57BL/6J mice [2] = assay: GLP1R-GLP2R dual agonist compound study: cumulative food intake; type: in vivo
Description: Forty (40, n=10, 4 groups) male C57BL/6J mice obtained from Taconic, Denmark, were used. At the time of the experiment, the mice had reached an age of 9-10 weeks. The mice were acclimatized for one week in their new environment and offered regular chow diet (Altromin 1324, Brogaarden A/S, Denmark) and domestic quality tap water. Animals were housed two per cage during the study, in a light-, temperature-, and humidity-controlled room (12-hour light: 12-hour dark cycle, lights on/off at 4 AM/4 PM hour; 22±1° C.; 50±10% relative humidity). […] Animals were uniquely identified with implantable microchips (Pet ID Microchip, E-vet) in all mice upon arrival. Animals were identified using the WS-2 weight station (MBrose ApS, Faaborg, Denmark) connected to a laptop running the HM02Lab software (Ellegaard Systems, Faaborg, Denmark). The HM02Lab software matches the body weight with ID and calculates the dose directly based on the body weight. All mice were handled for 3 days prior to the experiment to acclimatize the animals to handling and injections.

C57BL/6J mice [3] = assay: GLP1R-GLP2R dual agonist compound study: gut wet weight; type: in vivo
Description: On study day 8, the mice were terminated and the GI tract was removed for determination of the gut wet weight. The gut wet weight results are listed below in Table 12.

C57BL/6J mice [4] = assay: GLP1R-GLP2R dual agonist compound study: oral glucose tolerance test; type: in vivo
Description: On day 7, an oral glucose tolerance test (OGTT) was performed. Animals were mildly fasted as all food was removed 4 hours prior to the oral glucose load. Vehicle (SC) and compounds were administered subcutaneously (SC) 2 hours prior to the OGTT. At t=0 mice received an oral glucose load (2 g/kg; 4 ml/kg; 500 mg/ml, Fresenius Kabi, Sweden). Glucose was given as gavage via a gastrically-placed tube connected to a syringe ensuring accurate dosing. Blood glucose was measured from tail vein blood before glucose (at t=−120 and 0 min, baseline) and after glucose administration at t=15, 30, 60 and 120 min. Blood samples (tail vein) was collected into 10 μl heparinized glass capillary tubes and immediately suspended in buffer (0.5 ml of glucose/lactate system solution (EKF-diagnostics, Germany) and analyzed for glucose on the test day using a BIOSEN c-Line glucose meter (EKF-diagnostics, Germany) according to manufacturer's instructions. Results from the OGTT are listed below in Table 11.

lean C57BL/6J mice = assay: Sub-acute effect on body weight in lean C57BL/6J mice; type: in vivo; settings: for Body weight change in percent to baseline body weight: 50 nmol/kg BID SC, mean ± S.E.M.
Description: Eighteen (18) male C57/BL6J mice obtained from Janvier, France, were used. At the time of experimentation the mice had reached an age of 9 weeks. The mice were acclimatized for one week in their new environment and offered regular chow diet (Altromin 1324, Brogaarden A/S, Denmark) and domestic quality tap water. Animals were housed six per cage during the study, in a light-, temperature-, and humidity-controlled room (12-hour light:12-hour dark cycle, lights on/off at 4 AM/4 PM hour; 22±1° C.; 50±10% relative humidity).
Dosing volume was 5 ml/kg, SC.
The compounds were dissolved in PBS buffer containing 0.1% BSA, pH 7.4. The subcutaneous injections were placed at the lower back. All mice were handled for 3 days prior to experimentation to acclimatize the animals to handling and injections.

lean NMRI mice = assay: Acute effect on food intake in lean NMRI mice; type: in vivo; settings: for Cumulative food intake following administration of a single dose: 50 nmol/kg s.c., mean ± S.E.M.
Description: All animals were housed in groups of four. The animal room environment were controlled (targeted ranges: temperature 22±2° C.; relative humidity 50±10%; light/dark cycle: 12 hours light, 12 hours dark, lights off from 14.00 to 02.00 hours). The mice had ad libitum access to Altromin (Brogaarden, Denmark) and tap water. Mice arrived 5 days prior to the initiation of the study and were transferred to the HM-2 system. From arrival day no food was provided in the cages thereby forcing the animals to learn to eat from the food channels thus habituating the animals faster to the HM-2 system. Food intake and body weight were measured from day −3 and throughout the study. Food intake data were collected using the HM-2 real-time food intake monitoring system, an online computerized feeding system using digital weighing cells. As the animals were uniquely identified with microchips, each individual mouse was identified by its corresponding microchip upon entry and exit from the food channel. The HM-2 system continuously and in real-time mode monitored feeding activity in two independent channels and recorded the start and finishing time of each meal and the amount of food consumed by each animal within the selected time interval without human intervention. The net food intake was calculated by the HM-2 control unit software (HMLab, MBRose, Faaborg, Denmark).
Doses were administered subcutaneously (dose volume 5 ml/kg), in the lower back region. Food intake was measured up to 68 hours following the dosing of the animals.

human GLP-2 receptor = molecular target: T1, human GLP-2 receptor (human, UniProt O95838 1-553, limits assumed); assay: cell-based or functional assay
T1 sequence (looked up): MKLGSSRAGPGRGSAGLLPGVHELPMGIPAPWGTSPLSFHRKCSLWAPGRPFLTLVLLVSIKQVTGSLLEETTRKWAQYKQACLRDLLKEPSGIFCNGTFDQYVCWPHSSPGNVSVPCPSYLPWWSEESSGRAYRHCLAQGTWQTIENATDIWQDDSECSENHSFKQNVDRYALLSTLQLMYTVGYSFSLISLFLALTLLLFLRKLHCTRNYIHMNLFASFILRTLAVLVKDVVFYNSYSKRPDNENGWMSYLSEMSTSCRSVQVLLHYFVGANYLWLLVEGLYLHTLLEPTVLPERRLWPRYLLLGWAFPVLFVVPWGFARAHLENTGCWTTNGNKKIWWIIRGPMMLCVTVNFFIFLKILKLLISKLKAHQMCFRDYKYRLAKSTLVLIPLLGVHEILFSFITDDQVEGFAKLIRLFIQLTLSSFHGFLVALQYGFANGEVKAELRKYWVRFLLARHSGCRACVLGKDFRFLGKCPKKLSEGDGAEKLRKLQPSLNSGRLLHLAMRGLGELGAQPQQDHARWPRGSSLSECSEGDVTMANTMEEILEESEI

human GLP-1 receptor = human GLP-1 receptor (human, UniProt P43220 24-463, limits assumed); assay: cell-based or functional assay

Row | Molecule | Total food intake (g/animal) (C57BL/6J mice [1]; single SC dose 0.3 mg/kg) | Total food intake (g/animal) (C57BL/6J mice [1]; single SC dose 1 mg/kg) | Total food intake (g/animal) (C57BL/6J mice [1]; single SC dose 3 mg/kg) | GLP-2R, EC50 (human GLP-2 receptor) | GLP-1R, EC50 (human GLP-1 receptor) | further results
1 | HGDGSFTSELSTYLDNLAARDFINWLIQTKITD-NH2 (C-terminus assumed) [SEQ ID NO 7, R^1-HGDGSFTSELSTYLDNLAARDFINWLIQTKITDR^2] | 1.05 ± 0.41 g/animal | 0.47 ± 0.08 g/animal | 0.28 ± 0.12 g/animal | – | – | food intake after […] compared to vehicle (C57BL/6J mice [1]; single dose 1-3 mg/kg): significantly reduced food intake
2 | R^1-HGDGSFTDELSTYLDALAARDFIAWLIQTKR^2 [SEQ ID NO 3] | 0.76 ± 0.37 g/animal | 0.66 ± 0.15 g/animal | 0.30 ± 0.08 g/animal | – | – | Cumulative food intake (C57BL/6J mice [2]; Day 0-7, 3.0 mg/kg BID SC, mean ± S.E.M.): 26.03 ± 2.49 g; cumulative food intake compared to vehicle and teduglutide (C57BL/6J mice [2]; dosed twice daily for 7 days): considerably reduced cumulative food intake; Gut wet weight (C57BL/6J mice [3]; Day 8, 3.0 mg/kg BID SC, mean ± S.E.M.): 3.3 ± 0.2 g; gut wet weight compared to vehicle and teduglutide (C57BL/6J mice [3]; dosed twice daily for 8 days): significantly increased the gut wet weight; Oral glucose tolerance test AUC, 0-120 min (C57BL/6J mice [4]; Day 7, 3.0 mg/kg BID SC, glucose 2 g/kg oral, mean ± S.E.M.): 503 ± 97 mmol·min/L; blood glucose compared to vehicle and teduglutide (C57BL/6J mice [4]; dosed twice daily for 7 days): significantly reduced fasting blood glucose
3 | R^1-HGDGSFTDELSTYLDNLAARDFIAWLIQTKITDR^2 [SEQ ID NO 5] | 0.69 ± 0.19 g/animal | 0.83 ± 0.18 g/animal | 0.26 ± 0.08 g/animal | – | – | –
4 | R^1-HGDGSFTSELSTYLDALAARDFINWLIQTKR^2 [SEQ ID NO 4] | 0.93 ± 0.06 g/animal | 0.79 ± 0.15 g/animal | 0.25 ± 0.08 g/animal | – | – | –
5 | R^1-H-G-D-G-S-F-T-S-E-L-S-T-Y-[K(C16-yE-)]-DALAARDFIAWLIQTKITDR^2 [SEQ ID NO 23] | – | – | – | – | – | effect on body weight (lean C57BL/6J mice; 50 nmol/kg, after two days of administration, sustained up to seven days): significantly reduced the body weight; Body weight change in percent to baseline body weight (lean C57BL/6J mice; Day 0): 100.0 ± 0.0%; Body weight change in percent to baseline body weight (lean C57BL/6J mice; Day 2): 90.7 ± 0.8 %; Body weight change in percent to baseline body weight (lean C57BL/6J mice; Day 5): 89.5 ± 1.8 %; Body weight change in percent to baseline body weight (lean C57BL/6J mice; Day 7): 90.8 ± 1.4 %; acute food intake compared to vehicle (lean NMRI mice; 12 and 24 hours after single dose of 50 nmol/kg): significantly reduce acute food intake to an similar extend as liraglutide; Cumulative food intake following administration of a single dose (lean NMRI mice; 12 h after dosing): 1.82 ± 0.24 grams pr mice; Cumulative food intake following administration of a single dose (lean NMRI mice; 24 h after dosing): 2.83 ± 0.22 grams pr mice; Cumulative food intake following administration of a single dose (lean NMRI mice; 60 h after dosing): 11.43 ± 1.97 grams pr mice; food intake compared to vehicle (lean NMRI mice; 60 hours after single dose of 50 nmol/kg): tends to still have an effect
6 | HGDGSFTSELSTYLDK([γGlu-Palmitoyl])LAARDFIAWLIQTKITD [SEQ ID NO 24] | – | – | – | 5.6 nM | 0.338 nM | –
7 | HGDGSFTSELSTYK([γGlu-Palmitoyl])DALAARDFIAWLIQTKITD [SEQ ID NO 23] | – | – | – | 1.06 nM | 0.169 nM | –
8 | HGDGSFTSELK([γGlu-Palmitoyl])TYLDALAARDFIAWLIQTKITD [SEQ ID NO 21] | – | – | – | 4.25 nM | > 10 nM | –
9 | HGDGSFTSELSTYLDALAAK([γGlu-Palmitoyl])DFIAWLIQTKITD [SEQ ID NO 26] | – | – | – | > 100 nM | 0.658 nM | –
10 | HGDGSFK([γGlu-Palmitoyl])SELSTYLDALAARDFIAWLIQTKITD [SEQ ID NO 19] | – | – | – | > 100 nM | > 10 nM | –
11 | HGDGSFTSELSK([γGlu-Palmitoyl])YLDALAARDFIAWLIQTKITD [SEQ ID NO 22] | – | – | – | 6.61 nM | 0.543 nM | –
12 | HGDGSFTSELSTYLDAK([γGlu-Palmitoyl])AARDFIAWLIQTKITD [SEQ ID NO 25] | – | – | – | 1.93 nM | 0.319 nM | –
